# Measured values taken from EP4772520A1, “NOVEL PRODRUG-TYPE ANTICANCER AGENT TARGETING CANCER-SPECIFIC ENZYME ACTIVITY” (priority 2023, dated 2025).
# Like-named read-outs stand apart in the source and are kept apart here.
# How the values were obtained:
# [1] = Kinetic test in intraperitoneal administration; assay type: in vivo, Mice; conditions: 30 mg/kg i.p.
# Procedure: A specific procedure of the pharmacokinetics test is shown below. • (1) SN38-βGal (30 mg/kg) was dissolved in 100 µL of PBS and administered by i.p. • (2) 150 to 200 µL of anesthesia (in the case of a mixture of three types of Domitor + Betorphal + Mitazolam) was intraperitoneally administered 5 minutes before dissection at each time. • (3) The inside of a syringe was coated with sodium heparin, and at each evaluation time, the mouse was quickly stuck to the dissecting pad, and the abdomen was opened without bleeding, and whole blood was collected from the right ventricle with a 23 G needle. 100 µM β-Galactosidase inhibitor was added to whole blood. • (4) After whole blood collection, brain, heart, lung, liver, pancreas, spleen, kidney, stomach, small intestine, large intestine, muscle, and fat were taken out. As the muscle, a muscle near the thigh was resected. The weight of each organ was measured. • (5) Whole blood was centrifuged at 1200 G for 15 min at 4°C, and 200 µL of supernatant was collected. 800 µL of a solution of MeOH/MeCN = 1:1 (containing Rhodamine 123 = 25 µM as an internal standard) was added thereto, and the mixture was allowed to stand for 10 minutes. • (6) After standing, centrifugation was performed at 1700 G for 15 min at 4°C, and the supernatant was collected. About 80 µL of the mixture was fractionated, loaded on a Cosmo Spin Filter G (0.2 um), centrifuged at 12000 G for 5 min at 4°C, and filtered to collect a sample. • (7) Each resected organ was finely cut and put into a tube of Lysing Matrix D, 1000 µL of Lysis Buffer (added with 100 µM β-Galactosidase inhibitor) was added thereto, and the mixture was crushed with a shaker. • (8) The supernatant was collected from the tube of Lysing Matrix, and then centrifuged at 10,000 G for 5 min at 4°C to collect the supernatant to obtain a lysate solution. • (9) To 100 µL of the organ lysate solution, 200 µL of MeOH/MeCN = 1:1 (containing 30 µM of Rhodamine 123 as an internal standard) was added, and the mixture was allowed to stand for 10 minutes. • (10) Centrifugation was performed at 1700 G for 15min at 4°C to collect 200 µL of the supernatant. The supernatant was loaded on a Cosmo Spin Filter G (0.2 µm) and centrifuged at 12000 G for 5 min at 4°C to collect a sample. • (11) 50 µL of purified water and 50 µL of a filtered plasma sample or organ lysate sample were mixed, 10 µL of the mixture was injected into HPLC, and data of the area under the curve of the PDA spectrum at 380 nm (derived from SN 38) and 490 nm (derived from Rhodamine 123) were acquired, and then the respective numerical values were calculated from the volume for blood and the weight for organs by one inspection amount of Rhodamine 123.
# A specific procedure of the intraperitoneal concentration evaluation test is shown below. • (1) Intraperitoneal administration (i.p.) was performed on an evaluation amount of the drug. • (2) 2.0 mL of PBS was administered by i.p. at each evaluation time, and the abdomen was immediately massaged and sacrificed so that the drug could be collected as much as possible on the PBS side after administration. A small hole was made in the abdomen, and PBS in the abdominal cavity was quickly collected with a 1.0 mL syringe in a pushing manner, and this solution was used as an peritoneal washing solution. • (3) To 200 µL of the collected peritoneal washing solution, 800 µL (containing Rhodamine 123 = 25 µM) of 800 µL MeCN/MeOH = 1:1 was added to precipitate proteins. The supernatant was collected by centrifugation at 1700 G for 5 min at 4°C. • (4) 80 µL of the recovered supernatant was loaded on a cosmo spin filter G and centrifuged at 12000 G for 5 min at 4°C, and 50 µL of purified water was added to 50 µL of the recovered material to adjust the total amount to 100 µL to prepare a sample. • (5) The concentration of SN38-βGal was measured by HPLC, and the concentration of the recovered peritoneal washing solution was calculated.
# [2] = molecular target: T1, Human β-Galactosidase 1 (GLB1) (Homo sapiens, UniProt P16278); assay: Evaluation of drug release using LC-MS; assay type: biochemical; conditions: GLB1 purified enzyme added
# T1 sequence (P16278 29-677): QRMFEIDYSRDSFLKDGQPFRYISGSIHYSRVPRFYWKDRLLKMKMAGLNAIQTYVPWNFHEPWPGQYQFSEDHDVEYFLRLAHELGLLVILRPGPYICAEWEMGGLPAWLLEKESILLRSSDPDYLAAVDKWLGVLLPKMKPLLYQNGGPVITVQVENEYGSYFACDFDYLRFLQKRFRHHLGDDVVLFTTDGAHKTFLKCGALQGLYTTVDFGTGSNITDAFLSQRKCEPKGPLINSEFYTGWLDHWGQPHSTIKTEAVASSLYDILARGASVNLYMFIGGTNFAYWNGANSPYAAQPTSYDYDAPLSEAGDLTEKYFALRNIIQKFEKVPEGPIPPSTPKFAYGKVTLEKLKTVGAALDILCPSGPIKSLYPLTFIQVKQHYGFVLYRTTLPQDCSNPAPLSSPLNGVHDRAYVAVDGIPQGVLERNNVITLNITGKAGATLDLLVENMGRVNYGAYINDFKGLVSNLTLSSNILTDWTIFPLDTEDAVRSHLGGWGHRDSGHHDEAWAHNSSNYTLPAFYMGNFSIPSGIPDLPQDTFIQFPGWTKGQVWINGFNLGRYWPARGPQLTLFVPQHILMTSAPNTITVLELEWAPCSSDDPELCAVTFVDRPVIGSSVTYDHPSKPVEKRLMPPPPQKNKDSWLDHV
# From the text: Reactivity with Human β-Galactosidase 1 (GLB1), which is an assumed target enzyme of SN38-βGal, was confirmed using LC-MS.
# [3] = test system: lung squamous carcinomas cell H226; assay: Tumor proliferation suppression test in H226 subcutaneous tumor model; assay type: in vivo, mice; conditions: 200 mg/kg i.v. 3 times a week for 2 weeks, n = 5, vs Vehicle
# Procedure: 200 mg/kg of SN38-βGlcNAc was intravenously administered 3 times a week for 2 weeks to subcutaneous tumor model mice of lung squamous carcinomas cell H226, and the tumor proliferation suppression effect was evaluated. The Vehicle (DMSO administration) group and the SN38-βGlcNAc administration group were n = 5, respectively.
# The drug SN38-βGlcNAc was prepared by dissolving a 200 mM of DMSO stock in PBS, and was intravenously administered from the tail vein 3 times a week for 2 weeks at a dose of 200 mg/kg with a total amount of 100 µL. • (3) The body weight was measured on the day of evaluation, and the tumor volume was evaluated with a vernier caliper. • (4) Tumors were resected on day 19 from the start of dosing and their sizes were compared.
smiles,measurement,setting,value
CCc1c2c(nc3ccc(O[C@@H]4O[C@H](CO)[C@H](O)[C@H](O)[C@H]4O)cc13)-c1cc3c(c(=O)n1C2)COC(=O)[C@]3(O)CC [SN38-βGal],time of highest blood concentration,[1],around 10 minutes
same,organ distribution,[1]; 10 minutes to 60 minutes after administration,"the absorption from the small intestine was large, and only a slight distribution was confirmed in the brain"
same,intraperitoneal concentration,[1]; at 30 minutes,about 17%
same,half-life,"[1]; mouse, blood, ip, read-out: blood half-life",~30 min
same,AUC(0-inf),"[1]; mouse, in vivo, ip",15900 ng·h/mL
same,AUC(0-t) at 1 h,"[1]; mouse, in vivo, ip, read-out: AUC0-1h",15400 ng·h/mL
same,half-life,"[1]; mouse, in vivo, ip, read-out: t1/2 (converted)",11.8 min
same,release of SN38,[2],the release of SN38 showing an anticancer effect was confirmed
CCc1c2c(nc3ccc(O[C@@H]4O[C@H](CO)[C@@H](O)[C@H](O)[C@H]4NC(C)=O)cc13)-c1cc3c(c(=O)n1C2)COC(=O)[C@]3(O)CC [SN38-βGlcNAc],tumor proliferation suppression effect (tumor volume),[3],the tumor growth was almost completely suppressed
